What was measured:
Test in all cases: GRmax, 72 h; higher = less effect;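 note: breast cell lines in 384-well plates, nine doses across a 10^4 range, Dye Drop imaging of viable cells vs DMSO and time-zero plates, GR 0 means no net growth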
[1] = test system: MDAMB468
[2] = test system: SUM229PE
[3] = test system: BT474
[4] = test system: SUM44PE
[5] = test system: MCF12A
[6] = test system: HTERT_HME1
[7] = test system: 184A1
[8] = test system: MCF7
[9] = test system: MDAMB361
[10] = test system: UACC812
[11] = test system: HCC1954
[12] = test system: PDX1328
[13] = test system: T47D

| Compound | GRmax, 72 h [1] [GR] | GRmax, 72 h [2] [GR] | GRmax, 72 h [3] [GR] | GRmax, 72 h [4] [GR] | GRmax, 72 h [5] [GR] | GRmax, 72 h [6] [GR] | GRmax, 72 h [7] [GR] | GRmax, 72 h [8] [GR] | GRmax, 72 h [9] [GR] | GRmax, 72 h [10] [GR] | GRmax, 72 h [11] [GR] | GRmax, 72 h [12] [GR] | GRmax, 72 h [13] [GR] |
| --- | --- | --- | --- | --- | --- | --- | --- | --- | --- | --- | --- | --- | --- |
| CO[C@H]1C[C@@H]2CC[C@@H](C)[C@@](O)(O2)C(=O)C(=O)N2CCCC[C@H]2C(=O)O[C@H]([C@H](C)C[C@@H]2CC[C@@H](OCCO)[C@H](OC)C2)CC(=O)[C@H](C)/C=C(\C)[C@@H](O)[C@@H](OC)C(=O)[C@H](C)C[C@H](C)/C=C/C=C/C=C/1C [Everolimus] (max 10 µM) | 0.527 | 0.686 | 0.14 | 0.19 | 0.571 | 0.489 | 0.501 | 0.387 | 0.0574 | -0.0713 | 0.326 | 0.371 | 0.297 |
| CCC(=O)Nc1ccc(C(=O)Nc2ccc(Nc3ncc4c(n3)N(C)c3ccc(C)cc3C(=O)N4C)cc2)cc1 [FMF-03-145-1] | -0.46 | -0.209 | -0.227 | -0.0614 | 0.0223 | -0.0813 | -0.0063 | 0.0265 | 0.286 | -0.198 | -0.181 | 0.128 | -0.0373 |
| COc1cc(N2CCN(C)CC2)ccc1Nc1ncc2c(n1)N(C)c1ccccc1C(=O)N2CC(F)(F)F [FMF-03-146-1] | 0.706 | 0.999 | 1.07 | 0.946 | 0.95 | 0.785 | 1.04 | 0.78 | 0.362 | 0.918 | 0.808 | 0.893 | 0.683 |
| CN1CC[C@H](c2c(O)cc(O)c3c(=O)cc(-c4ccccc4Cl)oc23)[C@H](O)C1 [Flavopiridol] (max 1 µM) | -0.351 | -0.181 | -0.751 | -0.573 | -0.15 | -0.408 | -0.329 | -0.291 | -0.389 | -0.813 | -0.526 | -0.0976 | -0.134 |
| CC(C)n1nc(-c2ccc3oc(N)nc3c2)c2c(N)ncnc21 [INK128/MLN0128] (max 3.162 µM) | 0.0572 | 0.219 | -0.587 | -0.523 | 0.103 | 0.197 | 0.139 | -0.045 | -0.846 | -0.707 | -0.083 | -0.159 | -0.0486 |
| CC(C)NC[C@@H](C(=O)N1CCN(c2ncnc3c2[C@H](C)C[C@H]3O)CC1)c1ccc(Cl)cc1 [Ipatasertib/GDC0068] (max 10 µM) | 0.309 | 0.499 | -0.358 | -0.0416 | 0.654 | 0.635 | 0.631 | 0.25 | -0.58 | 0.0704 | 0.251 | 0.704 | 0.133 |
| CN(C)C(=O)c1cc2cnc(Nc3ccc(N4CCNCC4)cn3)nc2n1C1CCCC1 [LEE011/Ribociclib] (max 10 µM) | 0.947 | 0.576 | 0.583 | 0.378 | 0.789 | 0.292 | 0.11 | 0.31 | 0.0436 | 0.0889 | 0.543 | 0.265 | 0.15 |
| CCNC(=O)c1noc(-c2cc(C(C)C)c(O)cc2O)c1-c1ccc(CN2CCOCC2)cc1 [Luminespib/NVP-AUY922] (max 1 µM) | -0.174 | -0.293 | -0.505 | -0.483 | -0.316 | -0.335 | 0.0336 | 0.0015 | -0.885 | -0.521 | -0.374 | -0.253 | 0.0212 |
| CCOc1cc2ncc(C#N)c(Nc3ccc(OCc4ccccn4)c(Cl)c3)c2cc1NC(=O)/C=C/CN(C)C [Neratinib/HKI272] (max 3.162 µM) | -0.383 | 0.205 | -0.919 | -0.202 | 0.103 | 0.0983 | 0.162 | 0.0582 | -0.528 | -0.756 | -0.0909 | -0.0735 | 0.195 |
| O=C(c1cc(Cc2n[nH]c(=O)c3ccccc23)ccc1F)N1CCN(C(=O)C2CC2)CC1 [Olaparib/AZD2281] (max 10 µM) | 0.341 | 0.75 | 0.64 | 0.803 | 0.832 | 0.591 | 0.563 | 0.514 | 0.0945 | 0.199 | 0.527 | 0.631 | 0.53 |
| CC(=O)O[C@H]1C(=O)[C@@]2(C)[C@H]([C@H](OC(=O)c3ccccc3)[C@]3(O)C[C@H](OC(=O)[C@H](O)[C@@H](NC(=O)c4ccccc4)c4ccccc4)C(C)=C1C3(C)C)[C@]1(OC(C)=O)CO[C@@H]1C[C@@H]2O [Paclitaxel] (max 1 µM) | -0.522 | -0.377 | -0.636 | -0.474 | -0.124 | -0.224 | -0.268 | -0.106 | -0.609 | -0.852 | -0.396 | -0.403 | -0.134 |

Source: the supplement of paper PMC9663587
